# Measured values: paper PMC7902475 (Traffic (Copenhagen, Denmark), 2020)
# Substitutions are numbered along the chain they refer to.
# Legend:
# ALFY-FYVE [1] = biological target: T1, ALFY-FYVE (Homo sapiens, UniProt Q8IZQ1, E3471K); test: 1H-15N HSQC NMR titration, chemical shift perturbation fit; format: binding
# T1 sequence (Q8IZQ1 3428-3518 E3471K): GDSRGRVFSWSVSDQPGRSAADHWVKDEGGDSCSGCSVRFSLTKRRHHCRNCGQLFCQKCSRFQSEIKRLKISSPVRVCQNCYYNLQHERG
# ALFY-FYVE [2] = biological target: T2, ALFY-FYVE (Homo sapiens, UniProt Q8IZQ1); test: as above; format: binding
# T2 sequence (Q8IZQ1 3428-3518): T1 sequence (Q8IZQ1 3428-3518 E3471K) with K44E
structure (smiles),measurement,setting,value
"O=P(O)(O)O[C@@H]1[C@H](O)[C@H](OP(=O)(O)O)[C@@H](O)[C@H](O)[C@H]1O [Ins(1,3)P2]",Kd,ALFY-FYVE [1],82.8 to 270 µM
same,Kd,ALFY-FYVE [2],50.5 to 184 µM
